Experimental data published in patent US9840511B2, “2-(aryl or heteroaryl-)phenyl (AZA)benzofuran compounds for the treatment of hepatitis C” (BRISTOL-MYERS SQUIBB COMPANY, priority 2014, dated 2017).
pEC50: −log10 of the molar value. Like-named read-outs stand apart in the source and are kept apart here.

How the values were obtained:
[1] = test system: genotype 1b (Con-1) HCV replicon; test: HCV replicon luciferase assay; assay type: cell-based; settings: Hepatitis C virus, 72 h, Huh-7 cells, genotype 1b replicon, Renilla luciferase, 3 days incubation; for pEC50: read-out: EC50 lb (class); for EC50: read-out: EC50 (uM) lb
Procedure: Cell lines. The cell lines used to evaluate compounds consist of a human hepatocyte derived cell line (Huh-7) that constitutively expresses a genotype 1b (Con-1) HCV replicon or a genotype 1b (Con-1) HCV replicon with an asparagine replacing the cysteine at amino acid 316, or a genotype 2a (JFH-1) replicon, containing a Renilla luciferase reporter gene. These cells were maintained in Dulbecco's modified Eagle medium (DMEM) containing 10% FBS, 100 U/mL penicillin/streptomycin and 1.0 mg/mL G418.
HCV replicon luciferase assay. To evaluate compound efficacy, titrated compounds were transferred to sterile 384-well tissue culture treated plates, and the plates were seeded with HCV replicon cells (50 μL at a density of 2.4×10^3 cells/well) in DMEM containing 4% FBS (final DMSO concentration at 0.5%). After 3 days incubation at 37° C., cells were analyzed for Renilla Luciferase activity using the EnduRen substrate (Promega cat #E6485) according to the manufacturer's directions. Briefly, the EnduRen substrate was diluted in DMEM and then added to the plates to a final concentration of 7.5 μM. The plates were incubated for at least 1 h at 37° C. then read on a Viewlux Imager (PerkinElmer) using a luminescence program. The 50% effective concentration (EC50) was calculated using the four-parameter logistic formula noted above.
Compound EC50 data is expressed as A:<100 nM; B=100-1000 nM; C>1000 nM).

[2] = test system: HCV; settings: combination therapy; cited from earlier work
[3] = extended dosing of the combination regimens; cited from earlier work

Compound | pEC50 [1] | other results
CNC(=O)c1c(-c2ccc(-n3cncn3)cc2)oc2nc(CCC(F)(F)F)c(-c3cccc(C(=O)NC(C)(C)C)c3)cc12 [Compound 3007] | 6.00 to 7.00 | –
CNC(=O)c1c(-c2ccc(-n3ccnc3)cc2)oc2nc(CCC(F)(F)F)c(-c3cccc(C(=O)NC(C)(C)C)c3)cc12 [Compound 3006] | 6.00 to 7.00 | –
CNC(=O)c1c(-c2ccc(-c3ncccc3O)cc2)oc2nc(CCC(F)(F)F)c(-c3cccc(C(=O)NC(C)(C)C)c3)cc12 [Compound 4001] | 6.00 to 7.00 | –
CCN(c1cc2oc(-c3ccc(-n4ccnn4)cc3)c(C(=O)NC)c2cc1-c1cccc(C(=O)NC(C)(C)C)c1)S(C)(=O)=O [Compound 1002] | > 7.00 | EC50 [1]: 0.069 µM
CNC(=O)c1c(-c2ccc(-n3ccc(C(F)(F)F)n3)cc2)oc2nc(-n3ccc(C(F)(F)F)n3)c(-c3cccc(C(=O)NC(C)(C)C)c3)cc12 [Compound 2001] | 6.00 to 7.00 | –
CNC(=O)c1c(-c2ccc(-n3ccc(C)n3)cc2)oc2nc(CCC(F)(F)F)c(-c3cccc(C(=O)NC(C)(C)C)c3)cc12 [Compound 3010] | 6.00 to 7.00 | EC50 [1]: 0.28 µM
CNC(=O)c1c(-c2ccc(-n3ccnn3)cc2)oc2nc(CCC(F)(F)F)c(-c3cccc(C(=O)NC(C)(C)C)c3)cc12 [Compound 3001] | > 7.00 | EC50 [1]: 0.035 µM
alpha-interferon and ribavirin | – | sustained efficacy, share of patients [2]: 40%
CNC(=O)c1c(-c2ccc(-n3cnc(C)n3)cc2)oc2nc(CCC(F)(F)F)c(-c3cccc(C(=O)NC(C)(C)C)c3)cc12 [Compound 3004] | 6.00 to 7.00 | –
CNC(=O)c1c(-c2ccc(-n3cnnc3C)cc2)oc2nc(CCC(F)(F)F)c(-c3cccc(C(=O)NC(C)(C)C)c3)cc12 [Compound 3003] | < 6.00 | EC50 [1]: 3.32 µM
CNC(=O)c1c(-c2ccc(F)cc2)oc2cc(N(CCO)S(C)(=O)=O)c(C3CC3)cc12 [HCV-796] | – | hepatic toxicity [3]: hepatic toxicity observed
CNC(=O)c1c(-c2ccc(-n3cc(C(F)(F)F)cn3)cc2)oc2nc(-n3cc(C(F)(F)F)cn3)c(-c3cccc(C(=O)NC(C)(C)C)c3)cc12 [Compound 2002] | < 6.00 | –
CCN(c1cc2oc(-c3ccc(-n4nccn4)cc3)c(C(=O)NC)c2cc1-c1cccc(C(=O)NC(C)(C)C)c1)S(C)(=O)=O [Compound 1003] | > 7.00 | –
CCN(c1cc2oc(-c3ccc(-n4cccn4)cc3)c(C(=O)NC)c2cc1-c1cccc(C(=O)NC(C)(C)C)c1)S(C)(=O)=O [Compound 1001] | > 7.00 | EC50 [1]: 0.017 µM
CNC(=O)c1c(-c2ccc(-n3ncnc3C)cc2)oc2nc(CCC(F)(F)F)c(-c3cccc(C(=O)NC(C)(C)C)c3)cc12 [Compound 3002] | < 6.00 | –
CNC(=O)c1c(-c2ccc(-n3cc(C)cn3)cc2)oc2nc(CCC(F)(F)F)c(-c3cccc(C(=O)NC(C)(C)C)c3)cc12 [Compound 3008] | < 6.00 | –
CNC(=O)c1c(-c2ccc(-n3cnc(C)c3)cc2)oc2nc(CCC(F)(F)F)c(-c3cccc(C(=O)NC(C)(C)C)c3)cc12 [Compound 3009] | < 6.00 | –
